Reference: patent publication US10000507B2, “Furo- and thieno-pyridine carboxamide compounds useful as pim kinase inhibitors” (Incyte Corporation, priority 2013, dated 2018)

How the values were obtained:
Assay type in all cases: biochemical
Pim-1 = Pim-1 (Homo sapiens (Human), UniProt P11309); experiment: Pim-1 kinase assay; settings: 1 mM ATP, biotin-labeled BAD peptide substrate; read-out: Pim1 IC50
Experimental: (§1) Pim-1 and Pim-3 kinase assays-20 μL reactions were run in white 384 well polystyrene plates dotted with 0.8 μL compound/DMSO in the assay buffer (50 mM Tris, pH 7.5, 0.01% Tween-20, 5 mM MgCl2, 0.01% BSA, 5 mM DTT), containing […] Biotin-labeled BAD peptide substrate (AnaSpec 62269), 1 mM ATP, and 2.5 pM (Pim-1, Invitrogen PV3503) or 1.25 pM (Pim-3, Millipore 14-738) enzyme for 1 h at 25° C. Reactions were stopped by addition of 10 μL STOP Buffer (150 mM Tris, pH=7.5, 150 mM NaCl, 75 mM EDTA, 0.01% Tween-20, 0.3% BSA) supplemented with Phospho-Bad (Ser112) Antibody (Cell Signaling 9291) diluted 666-fold, and Streptavidin donor beads (PerkinElmer 6760002) along with Protein-A acceptor beads (PerkinElmer 6760137) at 15 μg/mL each. Supplementation of the STOP buffer with beads and stopping the reactions were done under reduced light. Prior to the stopping reactions STOP buffer with beads was pre-incubated for 1 h in the dark at room temperature. After stopping the reactions, plates were incubated for 1 h in the dark at room temperature before reading on a PHERAstar FS plate reader (BMG Labtech) under reduced light.

Pim-2 = Pim-2 (Homo sapiens (Human), UniProt Q9P1W9); experiment: Pim-2 kinase assay; settings: 1 mM ATP, fluorescein-labeled CREBtide peptide substrate; read-out: Pim2 IC50
Experimental: Pim-2 kinase assay-20 μL reactions were run in white 384 well polystyrene plates dotted with 0.8 μL compound/DMSO in the assay buffer (50 mM Tris, pH 7.5, 0.01% Tween-20, 5 mM MgCl2, 0.01% BSA, 5 mM DTT), containing 0.05 μm Fluorescein-labeled CREBtide peptide substrate (Invitrogen PV3508), 1 mM ATP, and 1 nM enzyme (Invitrogen PV3649) for 2 h at 25° C. Reactions were stopped by addition of 10 μL TR-FRET Dilution Buffer (Invitrogen PV3574) with 30 mM EDTA and 1.5 nM LanthaScreen Tb-CREB pSer133 antibody (Invitrogen PV3566). After 30 min. incubation at room temperature, plates were read on a PHERAstar FS plate reader (BMG Labtech).

Pim-3 = Pim-3 (Homo sapiens (Human), UniProt Q86V86); experiment: Pim-3 kinase assay; settings: 1 mM ATP, biotin-labeled BAD peptide substrate; read-out: Pim3 IC50
Experimental: as §1

Chain of Pim-2 (Q9P1W9 whole entry): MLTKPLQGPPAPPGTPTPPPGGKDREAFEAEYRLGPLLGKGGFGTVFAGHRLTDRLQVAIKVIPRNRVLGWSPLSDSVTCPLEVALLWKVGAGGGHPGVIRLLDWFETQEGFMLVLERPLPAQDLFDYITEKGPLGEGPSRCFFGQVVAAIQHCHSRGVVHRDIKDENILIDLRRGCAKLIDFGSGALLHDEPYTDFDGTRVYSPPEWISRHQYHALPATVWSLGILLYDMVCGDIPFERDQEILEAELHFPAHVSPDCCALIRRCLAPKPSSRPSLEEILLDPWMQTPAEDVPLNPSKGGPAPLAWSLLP
Chain of Pim-1 (P11309 whole entry): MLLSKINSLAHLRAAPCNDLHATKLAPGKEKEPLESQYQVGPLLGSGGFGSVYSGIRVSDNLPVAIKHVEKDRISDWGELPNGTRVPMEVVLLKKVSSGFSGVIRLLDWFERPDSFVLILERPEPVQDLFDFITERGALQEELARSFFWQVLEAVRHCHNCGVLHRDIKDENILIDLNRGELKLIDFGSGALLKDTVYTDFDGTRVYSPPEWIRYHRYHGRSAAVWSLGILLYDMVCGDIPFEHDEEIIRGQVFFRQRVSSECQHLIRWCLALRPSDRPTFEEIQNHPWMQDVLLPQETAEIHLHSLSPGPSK

In the case of `Cc1cncc(NC(=O)c2c(N)oc3cc(C(F)(F)F)cnc23)c1N1C[C@@H](N)[C@H](O)[C@@H](C)C1` [Example 79, 2-Amino-N-{5-methyl-4-[(3R,4R,5S)-3-amino-4-hydroxy-5-methylpiperidin-1-yl]pyridin-3-yl}-6-(trifluoromethyl)-furo[3,2-b]pyridine-3-carboxamide], the IC50 (Pim-1) is reported as ≤ 10 nM, the IC50 (Pim-2) is reported as 10 to 100 nM and the IC50 (Pim-3) is reported as ≤ 10 nM.
For `COCCCc1cnc2c(C(=O)Nc3cnccc3N3C[C@@H](N)C[C@@H](C(F)(F)F)C3)c(N)oc2c1` [Example 131, 2-Amino-N-{4-[(3S,5R)-3-amino-5-(trifluoromethyl)piperidin-1-yl]pyridin-3-yl}-6-(3-methoxypropyl)furo[3,2-b]pyridine-3-carboxamide], the IC50 (Pim-1) was ≤ 10 nM, the IC50 (Pim-2) was ≤ 10 nM and the IC50 (Pim-3) was ≤ 10 nM.
In the case of `CNC(=O)c1ccc(-c2cnc3c(C(=O)Nc4cnccc4N4C[C@@H](N)C[C@@H](C(F)(F)F)C4)c(N)oc3c2)cn1` [Example 126], the IC50 (Pim-1) is reported as ≤ 10 nM, the IC50 (Pim-2) is reported as 10 to 100 nM and the IC50 (Pim-3) is reported as ≤ 10 nM.
With `CCCc1cnc2c(C(=O)Nc3cnccc3N3C[C@@H](N)[C@H](O)[C@@H](C)C3)c(N)sc2c1` [Example 140, 2-Amino-N-(4-((3R,4R,5S)-3-amino-4-hydroxy-5-methylpiperidin-1-yl)pyridin-3-yl)-6-propylthieno[3,2-b]pyridine-3-carboxamide] the IC50 (Pim-1) was ≤ 10 nM, the IC50 (Pim-2) was ≤ 10 nM and the IC50 (Pim-3) was ≤ 10 nM.
For `Cc1ccc2sc(N)c(C(=O)Nc3cnn(C)c3N3CCCC(N)CC3)c2n1` (stereo not drawn) [Example 43, 2-Amino-N-[5-(4-aminoazepan-1-yl)-1-methyl-1H-pyrazol-4-yl]-5-methylthieno[3,2-b]pyridine-3-carboxamide], the IC50 (Pim-1) was ≤ 10 nM, the IC50 (Pim-2) was > 1000 nM and the IC50 (Pim-3) was 10 to 100 nM.
For `CCCc1cnc2c(C(=O)Nc3cnccc3N3CC[C@@H](F)[C@H](N)C3)c(N)oc2c1` [Example 80, 2-Amino-N-{4-[(3R,4R)-3-amino-4-fluoro-piperidin-1-yl]pyridin-3-yl}-6-propylfuro[3,2-b]pyridine-3-carboxamide], the IC50 (Pim-1) was ≤ 10 nM, the IC50 (Pim-2) was 100 to 1000 nM and the IC50 (Pim-3) was ≤ 10 nM.
`Cc1cnc2c(C(=O)Nc3cnccc3N3C[C@@H](N)C[C@@H](C(F)(F)F)C3)c(N)oc2c1` [Example 115, 2-Amino-N-{4-[(3S,5R)-3-amino-5-(trifluoromethyl)piperidin-1-yl]pyridin-3-yl}-6-methylfuro[3,2-b]pyridine-3-carboxamide] was tested, and the IC50 (Pim-1) was ≤ 10 nM, the IC50 (Pim-2) was ≤ 10 nM and the IC50 (Pim-3) was ≤ 10 nM.
`Cc1noc(C)c1-c1cnc2c(C(=O)Nc3cnccc3N3CCC[C@H](N)C3)c(N)sc2c1` [Example 28, 2-Amino-N-{4-[(3S)-3-aminopiperidin-1-yl]pyridin-3-yl}-6-(3,5-dimethylisoxazol-4-yl)-thieno[3,2-b]pyridine-3-carboxamide] was tested, and the IC50 (Pim-1) was ≤ 10 nM, the IC50 (Pim-2) was > 2000 nM and the IC50 (Pim-3) was > 40 nM.
With `CN1CCC(c2cnc3c(C(=O)Nc4cnccc4N4C[C@@H](N)C[C@@H](C(F)(F)F)C4)c(N)oc3c2)CC1` [Example 93, 2-Amino-N-{4-[(3S,5R)-3-amino-5-(trifluoromethyl)piperidin-1-yl]pyridin-3-yl}-6-(1-methylpiperidin-4-yl)furo[3,2-b]pyridine-3-carboxamide] the IC50 (Pim-1) was ≤ 10 nM, the IC50 (Pim-2) was 10 to 100 nM and the IC50 (Pim-3) was ≤ 10 nM.
With `Cn1ncc(NC(=O)c2c(N)sc3cc(-c4ccccc4)cnc23)c1N1CCCC(N)CC1` (stereo not drawn) [Example 25, 2-Amino-N-[5-(4-aminoazepan-1-yl)-1-methyl-1H-pyrazol-4-yl]-6-phenylthieno[3,2-b]pyridine-3-carboxamide] the IC50 (Pim-1) was ≤ 10 nM, the IC50 (Pim-2) was 10 to 100 nM and the IC50 (Pim-3) was ≤ 10 nM.
For `CCCc1cnc2c(C(=O)Nc3cnccc3[C@H]3C[C@@H](N)[C@](C)(O)[C@@H](C)C3)c(N)oc2c1` [Example 84, 2-Amino-N-(4-((1R,3R,4R,5S)-3-amino-4-hydroxy-4,5-dimethylcyclohexyl)pyridin-3-yl)-6-propylfuro[3,2-b]pyridine-3-carboxamide], the IC50 (Pim-1) was ≤ 10 nM, the IC50 (Pim-2) was 10 to 100 nM and the IC50 (Pim-3) was ≤ 10 nM.
In the case of `Nc1oc2cc(CCN3CC[C@@H](F)C3)cnc2c1C(=O)Nc1cnccc1N1C[C@@H](N)C[C@@H](C(F)(F)F)C1` [Example 138, 2-Amino-N-{4-[(3S,5R)-3-amino-5-(trifluoromethyl)piperidin-1-yl]pyridin-3-yl}-6-{2-[(3R)-3-fluoropyrrolidin-1-yl]ethyl}furo[3,2-b]pyridine-3-carboxamide], the IC50 (Pim-1) is reported as ≤ 10 nM, the IC50 (Pim-2) is reported as ≤ 10 nM and the IC50 (Pim-3) is reported as ≤ 10 nM.
In the case of `Nc1oc2cc(C3CC3)cnc2c1C(=O)Nc1cnccc1N1C[C@@H](N)[C@H](O)[C@@H](C2CC2)C1` [Example 128, 2-Amino-N-(4-((3R,4R,5S)-3-amino-5-cyclopropyl-4-hydroxypiperidin-1-yl)pyridin-3-yl)-6-cyclopropylfuro[3,2-b]pyridine-3-carboxamide], the IC50 (Pim-1) is reported as ≤ 10 nM, the IC50 (Pim-2) is reported as 10 to 100 nM and the IC50 (Pim-3) is reported as ≤ 10 nM.
For `Nc1sc2ccc(Cl)nc2c1C(=O)Nc1cnccc1N1CCC[C@H](N)C1` (stereo in doubt) [Example 40, 2-Amino-N-[4-(3-aminopiperidin-1-yl)pyridin-3-yl]-5-chlorothieno[3,2-b]pyridine-3-carboxamide], the IC50 (Pim-1) was ≤ 10 nM, the IC50 (Pim-2) was > 2000 nM and the IC50 (Pim-3) was 10 to 100 nM.
In the case of `C[C@@H]1C[C@H](N)CN(c2ccncc2NC(=O)c2c(N)oc3cc(-c4cncnc4)cnc23)C1` [Example 112, 2-Amino-N-{4-[(3S,5R)-3-amino-5-methylpiperidin-1-yl]pyridin-3-yl}-6-pyrimidin-5-ylfuro[3,2-b]pyridine-3-carboxamide], the IC50 (Pim-1) is reported as ≤ 10 nM, the IC50 (Pim-2) is reported as 10 to 100 nM and the IC50 (Pim-3) is reported as ≤ 10 nM.
`CC(C)c1cnc2c(C(=O)Nc3cnccc3N3CCC[C@H](N)C3)c(N)oc2c1` [Example 50, 2-amino-N-{4-[(3S)-3-aminopiperidin-1-yl]pyridin-3-yl}-6-(iso-propyl)furo[3,2-b]pyridine-3-carboxamide] was tested, and the IC50 (Pim-1) was ≤ 10 nM, the IC50 (Pim-2) was 10 to 100 nM and the IC50 (Pim-3) was ≤ 10 nM.
`CCCc1cnc2c(C(=O)Nc3cnn(C)c3N3CCCC(N)CC3)c(N)oc2c1` (stereo not drawn) [Example 59, 2-amino-N-[5-(4-aminoazepan-1-yl)-1-methyl-1H-pyrazol-4-yl]-6-propylfuro[3,2-b]pyridine-3-carboxamide] was tested, and the IC50 (Pim-1) was ≤ 10 nM, the IC50 (Pim-2) was 10 to 100 nM and the IC50 (Pim-3) was ≤ 10 nM.
With `Cc1cncc(NC(=O)c2c(N)oc3cccnc23)c1N1C[C@@H](N)[C@H](O)[C@@H](C)C1` [Example 76, 2-Amino-N-{5-methyl-4-[(3R,4R,5S)-3-amino-4-hydroxy-5-methylpiperidin-1-yl]pyridin-3-yl}-furo[3,2-b]pyridine-3-carboxamide] the IC50 (Pim-1) was ≤ 10 nM, the IC50 (Pim-2) was 100 to 1000 nM and the IC50 (Pim-3) was ≤ 10 nM.
For `Nc1oc2cc(CN3CC(F)C3)cnc2c1C(=O)Nc1cnccc1N1C[C@@H](N)C[C@@H](C(F)(F)F)C1` [Example 99, 2-Amino-N-{4-[(3S,5R)-3-amino-5-(trifluoromethyl)piperidin-1-yl]pyridin-3-yl}-6-[(3-fluoroazetidin-1-yl)methyl]furo[3,2-b]pyridine-3-carboxamide], the IC50 (Pim-1) was ≤ 10 nM, the IC50 (Pim-2) was 10 to 100 nM and the IC50 (Pim-3) was ≤ 10 nM.
In the case of `COc1ccnc2c(C(=O)Nc3cnccc3N3CCC[C@H](N)C3)c(N)sc12` [Example 16, 2-Amino-N-{4-[(3S)-3-aminopiperidin-1-yl]pyridin-3-yl}-7-methoxythieno[3,2-b]pyridine-3-carboxamide], the IC50 (Pim-1) is reported as ≤ 10 nM, the IC50 (Pim-2) is reported as 100 to 1000 nM and the IC50 (Pim-3) is reported as ≤ 10 nM.
In the case of `C[C@@H]1C[C@H](N)CN(c2ccncc2NC(=O)c2c(N)oc3cc(C4CC4)cnc23)C1` [Example 114, 2-Amino-N-{4-[(3S,5R)-3-amino-5-methylpiperidin-1-yl]pyridin-3-yl}-6-cyclopropylfuro[3,2-b]pyridine-3-carboxamide], the IC50 (Pim-1) is reported as ≤ 10 nM, the IC50 (Pim-2) is reported as ≤ 10 nM and the IC50 (Pim-3) is reported as ≤ 10 nM.
`CNC(=O)c1ccc(-c2cnc3c(C(=O)Nc4cnccc4N4C[C@H](C)C[C@H](N)C4)c(N)oc3c2)cn1` [Example 127, 2-Amino-N-(4-((3S,5R)-3-amino-5-methylpiperidin-1-yl)pyridin-3-yl)-6-(6-(methylcarbamoyl)pyridin-3-yl)furo[3,2-b]pyridine-3-carboxamide] was tested, and the IC50 (Pim-1) was ≤ 10 nM, the IC50 (Pim-2) was 10 to 100 nM and the IC50 (Pim-3) was ≤ 10 nM.
For `CCCc1cnc2c(C(=O)Nc3cnccc3N3C[C@@H](N)[C@@](C)(O)[C@@H](C)C3)c(N)oc2c1` [Example 86, 2-Amino-N-{4-[(3R,4S,5S)-3-amino-4-hydroxy-4,5-dimethylpiperidin-1-yl]pyridin-3-yl}-6-propylfuro[3,2-b]pyridine-3-carboxamide], the IC50 (Pim-1) was ≤ 10 nM, the IC50 (Pim-2) was ≤ 10 nM and the IC50 (Pim-3) was ≤ 10 nM.
